Data from ChEMBL document CHEMBL1817590, “Hippocampal and cortical neuronal growth mediated by the small molecule natural product clovanemagnolol” (2011).

Legend:
[1] = biological target: T1, Choline O-acetyltransferase (Rattus norvegicus) (UniProt P32738); assay: Increase in choline acetyltransferase activity in rat brain neurons at […] after 10 days relative to control; type: tissue-based
T1 sequence (whole entry): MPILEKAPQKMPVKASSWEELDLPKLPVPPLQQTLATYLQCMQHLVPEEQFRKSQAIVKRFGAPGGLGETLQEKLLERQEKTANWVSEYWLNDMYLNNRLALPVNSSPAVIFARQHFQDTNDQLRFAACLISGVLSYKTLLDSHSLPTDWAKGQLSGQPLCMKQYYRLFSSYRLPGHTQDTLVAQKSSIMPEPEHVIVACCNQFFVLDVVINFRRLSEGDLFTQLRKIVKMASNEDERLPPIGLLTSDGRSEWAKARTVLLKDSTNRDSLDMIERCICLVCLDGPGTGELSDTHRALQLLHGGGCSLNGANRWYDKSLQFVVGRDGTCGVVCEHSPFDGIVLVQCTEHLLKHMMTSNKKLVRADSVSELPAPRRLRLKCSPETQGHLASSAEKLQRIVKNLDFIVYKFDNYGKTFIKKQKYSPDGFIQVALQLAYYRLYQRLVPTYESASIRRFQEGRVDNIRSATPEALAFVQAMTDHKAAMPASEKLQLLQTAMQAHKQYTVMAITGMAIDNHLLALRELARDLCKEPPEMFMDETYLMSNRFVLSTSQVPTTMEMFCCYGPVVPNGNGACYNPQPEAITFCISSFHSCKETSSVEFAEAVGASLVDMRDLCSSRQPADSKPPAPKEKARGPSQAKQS

[2] = Neurotrophic activity in isolated embryonic mouse brain Hippocampal neurons assessed as induction of neurite outgrowth at 0.01 uM after 48 hrs relative to control; type: functional, Hippocampal neuron
[3] = Neurotrophic activity in isolated embryonic mouse brain Hippocampal neurons assessed as induction of neurite outgrowth at 0.1 uM after 48 hrs relative to control; type: functional, Hippocampal neuron
[4] = Neurotrophic activity in isolated embryonic mouse brain Hippocampal neurons assessed as induction of neurite outgrowth at 1 uM after 48 hrs relative to control; type: functional, Hippocampal neuron
Hippocampal neuron = assay: Neurotrophic activity in isolated embryonic mouse brain Hippocampal neurons assessed as induction of neurite outgrowth after 48 hrs relative to control; type: functional
Cortical neurone [5] = assay: Neurotrophic activity in isolated embryonic mouse embryonic Cortical neurons assessed as induction of neurite outgrowth at 0.01 uM after 48 hrs relative to control; type: functional
Cortical neurone [6] = assay: Neurotrophic activity in isolated embryonic mouse embryonic Cortical neurons assessed as induction of neurite outgrowth at 0.1 uM after 48 hrs relative to control; type: functional
Cortical neurone [7] = assay: Neurotrophic activity in isolated embryonic mouse embryonic Cortical neurons assessed as induction of neurite outgrowth at 1 uM after 48 hrs relative to control; type: functional
Cortical neurone [8] = assay: Neurotrophic activity in isolated embryonic mouse embryonic Cortical neurons assessed as induction of neurite outgrowth after 48 hrs relative to control; type: functional

Activity [1] [%] | SMILES | Activity [2] [%] | Activity [3] [%] | Activity [4] [%] | Activity (Hippocampal neuron) | Activity (Cortical neurone [5]) [%] | Activity (Cortical neurone [6]) [%] | Activity (Cortical neurone [7]) [%] | Activity (Cortical neurone [8])
142 | C=CCc1ccc(O)c(-c2cc(CC=C)ccc2O[C@H]2CC(C)(C)[C@@H]3CC[C@]4(C)C[C@]23CC[C@H]4O)c1 [CLOVANEMAGNOLOL] | 62.8 | 26.5 | -83.9 | Dose-dependent effect | 44.2 | 22.7 | -80.7 | Dose-dependent effect
 | C=CCc1ccc(O)c(-c2cc(CC=C)ccc2O)c1 [MAGNOLOL] | 50.1 | 23.9 | -69 | Dose-dependent effect | 20.2 | 55.6 | -74.6 | Dose-dependent effect
